Patent US6346539B1, “Treatment of skin conditions” (BTG International Limited, priority 1998, dated 2002)
Like-named read-outs stand apart in the source and are kept apart here.

Tests used:
mouse melan-a cells = test: Melanocyte proliferant activity of piperine derivatives, SRB assay, 4 days, 10% FBS; format: cell-based; conditions: for activity at 1 µM / activity at 10 µM / activity at 50 µM / activity at 100 µM / activity at 25 µM: Mus musculus, Melan-a, 96 h; for Active at 10 μM? / More active than piperine at higher conc. (μM)? / Active at higher conc. (μM)?: overall summary; for More active than piperine at higher conc. (μM)?: concentrations at which more active than piperine; for Relative activity to piperine: (A-100) compound/(A-100) piperine; for Active at higher conc. (μM)?: concentrations at which active
Protocol: The plates were incubated at 37° C. in a 10% CO2, 90% air humidified atmosphere for the stated length of time. At the end of the incubation, an SRB assay was performed. Briefly, cells attached to the bottom of the plate were fixed by addition of cold trichloroacetic acid (TCA, 4° C., Aldrich, Dorset, UK) on the top of the growth medium (final TCA 20% w/v). The plate was placed at 4° C. for 1 hour before being gently washed five times with tap water. It was allowed to dry in air, or aided with a hair dryer to speed up the drying process, then 50 μl of 4% w/v SRB dissolved in 1% acetic acid in water was added to each well for 30 min. At the end of the staining period, unbound SRB was removed by washing 4 times with 1% acetic acid. The plate was air dried again, and 150 μl of 10 mM aqueous Tris base (Sigma-Aldrich Co. Ltd, Irvine, UK) was added into each well to solubilize the cell-bound dye.
Various piperine derivatives of formula (1) were synthesised and tested for melanocyte (mouse melan-a) proliferant activity in-vitro. Cells we re incubated with the test compound for 4 days, as previously for the mouse cells but with 10% FBS, after which the sulphorhodamine-B (SRB) assay was performed to determnine cell number SRB uptake was measured as optical density at 550 nm. The control assay was carried out on cells incubated without test compound. There were 2 or 3 series of experiments, each of which consisted of six replcate experiments.
Percentage cell growth was obtained with a given compound calculated as (optical density in the presence of the compound/control optical density)×100.
Melan-a cell proliferant activity for tested compounds was compared with that obtained with piperine. […] All figures are given with Standard Error of the Mean.

melan-a cells = test: Dendricity of melan-a cells by observation under microscope; format: cell-based, mouse; parameters: key: +++: highly dendritic; ++: moderately dendritic; +: weakly dendritic; −: no effect
Excerpt: Effect on dendricity of melan-a cells by the test compounds was by observation under microscope. Dendricity is relevant to vitiligo since normal skin melanocytes have dendrites, but in vitiligo the melanocytes seem to lose these before they disappear from the patches.

[1] = read-out: growth of melan-a cells as % of control, dose experiment
[2] = 10 μM, read-out: growth of melan-a cells as % of control, dose experiment
[3] = single concentration (10 μM), melan-a
[4] = single concentration (10 μM), melan-a, ± SEM, read-out: Percentage cell growth (Repeated experiments)

| Structure (SMILES) | activity at 1 µM (mouse melan-a cells; [1]) | activity at 10 µM (mouse melan-a cells; [2]) | activity at 50 µM (mouse melan-a cells; [1]) | activity at 100 µM (mouse melan-a cells; [1]) | Active at 10 μM? (mouse melan-a cells; melan-a) | Stimulant activity (mouse melan-a cells; [3]) | Dentricity, dose experiment (melan-a cells; 1 μM) | Dentricity, dose experiment (melan-a cells; 10 μM) | Dentricity, dose experiment (melan-a cells; 50 μM) | Dentricity, dose experiment (melan-a cells; 100 μM) | Dendricity (melan-a cells; Table 9, 10 μM) | Dendricity (melan-a cells; Table 7, 10 μM) | More active than piperine at higher conc. (μM)? (mouse melan-a cells) | activity at 10 µM (mouse melan-a cells; [4]) | Dendricity (melan-a cells; Table 8, 10 μM) | Relative activity to piperine (mouse melan-a cells; 10 μM) | activity at 25 µM (mouse melan-a cells; [1]) | Active at higher conc. (μM)? (mouse melan-a cells) | Dendricity (melan-a cells; Table 11, 10 μM) |
| --- | --- | --- | --- | --- | --- | --- | --- | --- | --- | --- | --- | --- | --- | --- | --- | --- | --- | --- | --- |
| COC(=O)/C=C/C=C/c1ccc2c(c1)OCO2 [RV-AB1, 5-E,E-piperinic Acid Methyl Ester] | 125 ± 13% | 147 ± 16% | 187 ± 12% | 171 ± 8% | Yes | Positive | − | + | ++ | ++ | ++ |  |  |  |  |  |  |  |  |
| O=C(/C=C/C=C/c1ccc2c(c1)OCO2)NCc1ccc2c(c1)OCO2 [RV-A04, 5-E,E-piperinoylpiperinolymine] | 101 ± 12% | 138 ± 10% | 150 ± 15% | 71 ± 9% | Yes^a | Non- significant here, but positive in dose response test | − | + | + |  |  | + |  |  |  |  |  |  |  |
| COC(=O)/C=C/c1ccc2c(c1)OCO2 [RV-BB1, 3-trans-benzo-1,3-dioxol-5-ylacrylic acid methyl ester] |  |  |  |  | No^b | Non- significant |  |  |  |  |  |  |  |  |  |  |  |  |  |
| COc1cccc(/C=C/C(=O)N2CCCCC2)c1 [RV-G02, 1-(3-methoxy-cinnamoyl)piperidine] | 99 ± 5% | 95 ± 18% | 110 ± 11% | 127 ± 9% | No | Negative | − | − | − | − |  |  | No |  |  |  |  |  |  |
| O=C(/C=C/c1ccc2c(c1)OCO2)N1CCOCC1 [RV-B03, 1-(3-trans-benzo-1,3-dioxol-5-ylacryloyl)morpholine] |  |  |  |  | No | None |  |  |  |  |  |  |  | 103 ± 12% | − |  |  |  |  |
| COc1ccccc1/C=C/C(=O)N1CCCCC1 [RV-G01, 1-(2-methoxy-cinnamoyl)-piperidine] | 99 ± 8% | 105 ± 8% | 103 ± 6% | 119 ± 9% | No | None | − | − | − | − |  |  | No | 105 ± 8% |  | 0.04 |  |  |  |
| CCCCCCNC(=O)/C=C/C=C/c1ccc2c(c1)OCO2 [RV-A05, 5-E,E-piperinoylhexylamine] | 155 ± 9% | 188 ± 13% | 178 ± 8% |  | Yes | Positive |  |  |  |  |  | +++ | No |  |  |  | 178 ± 18% |  |  |
| O=C(/C=C/c1ccc2c(c1)OCO2)N1CCCC1 [RV-B02, 1-(3-trans-benzo-1,3-dioxol-5-ylacryloyl)pyrrolidine] |  |  |  |  | No^b | Non- significant |  |  |  |  |  |  |  | 140 ± 14% | + |  |  |  |  |
| CCNC(=O)/C=C/C=C/c1ccc2c(c1)OCO2 [RV-A08, 5-E,E-piperinoylethylamine] | 139 ± 27% | 200 ± 14% | 81 ± 12% | 62 ± 13% | Yes | Positive | ++ | +++ | + | + |  | +++ | No | 200 ± 14% |  | 0.73 |  | No |  |
| O=C(CCc1ccc2c(c1)OCO2)N1CCCCC1 [RV-C03, 3-benzo-1,3-dioxol-5-ylpropionic Acid Piperidide] |  |  |  |  | No^b | None |  |  |  |  |  |  |  | 104 ± 5% |  |  |  |  | + |
| CC(C)OC(=O)/C=C/C=C/c1ccc2c(c1)OCO2 [RV-AB4, 5-E,E-piperinic Acid Isopropyl Ester] | 175 ± 6% | 224 ± 12% | 148 ± 19% | 90 ± 7% | Yes | Positive | ++ | ++ | ++ | + | ++ |  |  | 224 ± 12% |  | 0.8 |  |  |  |
| CC(C)CNC(=O)/C=C/C=C/c1ccc2c(c1)OCO2 [RV-A06, Piperlonguminine] | 134 ± 7% | 188 ± 14% | 135 ± 24% |  | Yes | Positive |  |  |  |  |  | +++ | No | 147 ± 66% |  |  | 172 ± 15% |  |  |
| O=C(/C=C/C=C/c1ccc2c(c1)OCO2)NC1CCCCC1 [RV-A10, 5-E,E-piperinoyl cyclohexylamine] | 301 ± 20% | 308 ± 29% | 155 ± 22% | 100 ± 13% | Yes | Positive | +++ | +++ | + | + |  | +++ |  | 308 ± 29% |  | 1.02 |  |  |  |
| CC(C)NC(=O)/C=C/C=C/c1ccc2c(c1)OCO2 [RV-A09, 5-E,E-piperinoylisopropylamine] | 187 ± 15% | 224 ± 19% | 85 ± 5% | 42 ± 6% | Yes | Positive | +++ | +++ | + | + |  | +++ | No | 224 ± 19% |  | 0.76 |  | No |  |
